What was measured:
[1] = tested on: KCC2 pThr1007 and NKCC1 pThr203/207/212; assay: In vivo pharmacodynamic analysis, brain; parameters: species or system mouse; settings: naïve brains; 60 minutes after administration
Method: Male C57BL/6j wild-type mice (6 weeks old) were purchased from Charles River Laboratories Edinburgh UK. ZT-1a was dissolved in DMSO (Sigma) solution and administered by subcutaneous injection into wild type male C57BL/6 mice at doses of 0, 3, 10, 30, 50 and 100 mg/kg. 50 mg/kg Closantel (1) was injected as a comparative control. Age-matched SPAK^502A/502A knock-in mice were also used as comparative controls (Zhang et al. (2015) Human molecular genetics 24: 4545-455). Control mice were treated with an equal volume of DMSO solution. One hour after administration, mice were sacrificed by cervical dislocation, and kidney and brain tissues were rapidly dissected and snap-frozen in liquid nitrogen. The SPAK^502A/502A knock-in mouse was established and maintained under specific pathogen-free conditions at the University of Dundee (UK) as described in our recent study.
Referring to FIG. 9A and FIG. 9B, in vivo pharmacodynamic analysis of ZT-1a was performed. ZT-1a and Closantel were administered via subcutaneous injection at the indicated doses. Brain (FIG. 9A) and kidney (FIG. 9B) tissues were collected, and endogenous proteins were subjected to immunoblot probed with SPAK, NKCC1 and NCC phospho-specific antibodies.

human SPAK 452-547(end) = target: T1, human SPAK 452-547(end) (Homo sapiens, UniProt Q9UEW8); assay: Fluorescence polarization, SPAK-WNK peptide interaction; format: binding; settings: for IC50: Lumio-Green-labelled WNK peptide 10 nM, read-out: IC50, concentration-dependent decrease in fluorescence polarization; for disruption of binding between WNK4 and the SPAK CCT domain: fluorescence polarization
T1 construct: Purified human SPAK 452-547(end); made in house; host or cells: E. coli
Method: Fluorescence polarization measurements were performed at 25° C. with purified SPAK proteins in 50 mM Tris/HCl, pH 7.5, 150 mM NaCl and 2 mM DTT. The concentration of SPAK proteins was determined by measuring their absorbance at 280 nm and calculated using the molar absorption coefficient determined by the ProtParam Online tool (Gasteiger et al., 2001). All peptides ([…] [EP4543] and […] [EP4544]; SEQ ID NO:2 and SEQ ID NO:3, respectively) contained an N-terminal linker required for conjugating to the Lumio Green fluorophore ([…]; SEQ ID NO:4) and were initially re-suspended in 50 mM ammonium bicarbonate, pH 8. Peptide labelling was achieved by incubating […] of each peptide in a 0.5 ml reaction mixture of 20 μM Lumio Green in 25 mM Tris/HCl, pH 7.5, 200 mM NaCl and 5 mM 2-mercaptoethanol. Reactions were left to proceed in the dark for 2 h. The peptides were dialysed for 4 h into 25 mM Tris/HCl, pH 7.5, 200 mM NaCl and 5 mM 2-mercaptoethanol using a Micro DispoDIALYZER with a 100 Da molecular-mass cut-off (Harvard Apparatus), and then for another 12 h with changed buffer. For fluorescence polarization, mixtures were set up containing the indicated concentration of protein, 10 nM Lumio-Green-labelled peptide in a final volume of 30 μl. All individual bindings were performed in duplicate with at least 12 data points per curve. Fluorescence polarization was measured using a BMG PheraStar plate reader, with an excitation wavelength of 485 nm and an emission wavelength of 538 nm, and measurements were corrected to the fluorescent probe alone. Data analysis and graphing were then performed in GraphPad Prism7; a one-site specific binding model was assumed (Y=Bmax*X/[Kd+X]) and the fitted dissociation constant computed. All experimental bindings were repeated at least twice.
Referring to FIG. 5A, analysis of SPAK-WNK interaction by fluorescence polarization is shown. Purified human SPAK 452-547(end) and human SPAK 452-547 with L491A (equivalent to L502 in mouse) were diluted appropriately and mixed at a 1:1 volume ratio with 20 nM Lumino-Green-labelled WNK peptide (RFQV or AFQV) to the concentration stated in the Figure (with the final peptide concentration consistent at 10 nM), and fluorescent polarization measurements were made. Binding curves, assuming one-site-specific binding, were then generated with Prism6 using milli-polarization (mP) units.

[2] = tested on: mouse model of ischemic stroke; assay: Infarct volume and hemispheric swelling after transient MCAO; format: in vivo
Text: Under an operating microscope, the left common carotid artery was exposed through a midline incision. […] The ECA was dissected further distally and permanently ligated. The internal carotid artery (ICA) was isolated and carefully separated from the adjacent vagus nerve. A 12 mm length of silicon-coated nylon filament (size 6-0, native diameter 0.11 mm; diameter with coating 0.21+/−0.02 mm; coating length 5-6 mm; Doccol Corporation, Sharon, Mass.) was introduced into the ECA lumen through a puncture. The silk suture around the ECA stump was tightened around the intraluminal nylon suture to prevent bleeding. The nylon suture was then gently advanced from the ECA to the ICA lumen until mild resistance was felt (˜9 mm). For reperfusion, the suture was withdrawn 50 min after MCAO to restore blood flow. Body temperature was maintained for the duration of the experiment between 36.5° C.-37° C. with a small animal heating pad (Kent Scientific).
At 24 hours reperfusion, mice were anesthetized with 5% isoflurane and then decapitated. Coronal brain tissue slices (2 mm) were stained for 20 minutes at 37° C. with 1% 2,3,5-triphenyltetrazolium chloride monohydrate (TTC; Sigma, St Louis, Mo.) in PBS solution. […] The extent of hemispheric swelling was calculated using the following equation: swelling (% contralateral side)=[(volume of ipsilateral hemisphere−volume of contralateral hemisphere)/volume of contralateral hemisphere]×100 (Bhuiyan et al. (2017) Journal of cerebral blood flow and metabolism: official journal of the International Society of Cerebral Blood Flow and Metabolism 37: 2780-2794).
Referring to FIG. 11A, an experimental design of ischemic stroke study is shown. Vehicle or ZT-1a is administered at 3 hrs and 8 hrs post-MCAO.
Referring to FIG. 11B, representative images and quantification of infarct volume and hemispheric swelling in TTC-stained coronal sections of mouse brains 24 hrs post-MCAO are shown. Vehicle (DMSO, 2 ml/kg) or ZT-1a (2.5 or 5.0 mg/kg) were administered with an initial half dose at 3 hrs and the second half dose at 8 hr reperfusion via intra-peritoneal injection (i.p.). Data are mean±SD, n=6-12 per group (male). * p<0.05.

Compound	effect on KCC2 (pThr1007) or NKCC1 (pThr203/207/212) phosphorylation [1]	IC50 (human SPAK 452-547(end)) [µM]	disruption of binding between WNK4 and the SPAK CCT domain (human SPAK 452-547(end))	infarct volume ([2]; 5 mg/kg i.p., post-stroke from 3 hr reperfusion, 24 hrs post-MCAO, mean±SD) [mm^3]	decrease of infarct volume ([2]; 5 mg/kg i.p., post-stroke from 3 hr reperfusion, 24 hrs post-MCAO, vs vehicle) [%]	reduction of cerebral hemispheric swelling ([2]; 2.5 or 5 mg/kg, 24 hrs post-MCAO, vs vehicle) [%]	effect on infarct volume and hemispheric swelling ([2]; 0.1 mg/kg dose)	effect on infarct volume and hemispheric swelling ([2]; 1.0 or 2.5 mg/kg at 3 hr and at 8 hr reperfusion)
Cc1cc(C(C#N)c2ccc(Cl)cc2)c(Cl)cc1NC(=O)c1cc(Cl)ccc1O (centres unmarked) [ZT-1a, 5-chloro-N-(5-chloro-4-((4-chlorophenyl)(cyano)methyl)-2-methylphenyl)-2-hydroxy-benzamide]	neither drug reduced	326	did not disrupt	50.4±27.0	~35	36 to 50		
Cc1cc(C(C#N)c2ccc(Cl)cc2)c(Cl)cc1NC(=O)c1cc(I)cc(I)c1O (centres unmarked) [Closantel]	neither drug reduced	> 1000	did not disrupt				ineffective	dose-dependently reduced
